According to patent US5834461A, “Tricyclic benzazepine vasopressin antagonists” (American Cyanamid Company, priority 1997, dated 1998):

Assays:
[1] = target: T1, vasopressin V1 receptor subtype in human platelet membranes (Homo sapiens, UniProt P37288); assay: Binding to Vasopressin V1 Receptor Subtype in Human Platelet Membranes; conditions: for IC50: human platelet V1 (*)
T1 construct: tissue Hudson Valley Blood Services; host or cells: human blood platelets (frozen platelet rich plasma)
Description: (a) Platelet Membrane Preparation:
Frozen platelet rich plasma (PRP), received from the Hudson Valley Blood Services, are thawed to room temperature. (Platelet Source: Hudson Valley Blood Services, Westchester Medical Center, Valhalla, N.Y.). The tubes containing the PRP are centrifuged at 16,000×g for 10 min. at 4° C. and the supernatant fluid discarded. The platelets resuspended in an equal volume of 50.0 mM Tris.HCl, pH 7.5 containing 120 mM NaCl and 20.0 mM EDTA. The suspension is recentrifuged at 16,000×g for 10 min. This washing step is repeated one more time. The wash discarded and the lysed pellets homogenized in low ionic strength buffer of Tris.HCl, 5.0 mM, pH 7.5 containing 5.0 mM EDTA. The homogenate is centrifuged at 39,000×g for 10 min. The resulting pellet is resuspended in Tris.HCl buffer, 70.0 mM, pH 7.5 and recentrifuged at 39,000×g for 10 min. The final pellet is resuspended in 50.0 mM Tris.HCl buffer pH 7.4 containing 120 mM NaCl and 5.0 mM KCl to give 1.0-2.0 mg protein per ml of suspension.
(b) Binding to Vasopressin V1 Receptor Subtype in Human Platelet Membranes:
In wells of a 96 well format microtiter plate, add 100 μl of 50.0 mM Tris.HCl buffer containing 0.2% BSA and a mixture of protease inhibitors (aprotinin, leupeptin etc.). Then add 20 μl of [^3 H]Ligand (Manning or Arg^8 Vasopressin), to give final concentrations ranging from 0.01 to 10.0 nM. Initiate the binding by adding 80.0 μl of platelet suspension (approx. 100 μg protein). Mix all reagents by pipetting the mixture up and down a few times. Non specific binding is measured in the presence of 1.0 μM of unlabeled ligand (Manning or Arg^8 Vasopressin). Let the mixture stand undisturbed at room temperature for ninety (90) min. Upon this time, rapidly filter off the incubate under vacuum suction over GF/B filters, using a Brandel Harvester. The radioactivity caught on the filter disks is determined by the addition of liquid scintillant and counting in a liquid scintillator.

[2] = target: T2, human V2 vasopressin receptor (Homo sapiens, UniProt P30518); assay: Binding to Membranes of Mouse Fibroblast Cell Line (LV-2) Transfected with the cDNA Expressing the Human V2 Vasopressin Receptor; conditions: LV-2 cells
T2 construct: expressed in transfected cells; host or cells: mouse fibroblast cell line LV-2
Description: Flasks of 175 ml capacity, containing attached cells grown to confluence, are cleared of culture medium by aspiration. The flasks containing the attached cells are rinsed with 2×5 ml of phosphate buffered saline (PBS) and the liquid aspirated off each time. Finally, 5 ml of an enzyme free dissociation Hank's based solution (Specialty Media, Inc., Lafayette, N.J.) is added and the flasks are left undisturbed for 2 min. The content of all flasks is poured into a centrifuge tube and the cells pelleted at 300×g for 15 min. The Hank's based solution is aspirated off and the cells homogenized with a polytron at setting #6 for 10 sec in 10.0 mM Tris.HCl buffer, pH 7.4 containing 0.25M sucrose and 1.0 mM EDTA. The homogenate is centrifuged at 1500×g for 10 min to remove ghost membranes. The supernatant fluid is centrifuged at 100,000×g for 60 min to pellet the receptor protein. Upon completion, the pellet is resuspended in a small volume of 50.0 mM Tris.HCl buffer, pH 7.4. The protein content is determined by the Lowry method and the receptor membranes are suspended in 50.0 mM Tris.HCl buffer containing 0.1 mM phenylmethylsulfonylfluoride (PMSF) and 0.2% bovine serum albumin (BSA) to give 2.5 mg receptor protein per ml of suspension.
For binding experiments, the following is added in μl volume to wells of a 96 well format of a microtiter plate: 100.0 μl of 100.0 mM Tris.HCl buffer containing 0.2% heat inactivated BSA, 10.0 mM MgCl2 and a mixture of protease inhibitors: leupeptin, 1.0 mg %; aprotinin, 1.0 mg %; 1,10-phenanthroline, 2.0 mg %; trypsin inhibitor, 10.0 mg % and 0.1 mM PMSF., 20.0 μl of [^3 H] Arginine^8, vasopressin (S.A. 75.0 Ci/mmole) at 0.8 nM and the reaction initiated by the addition of 80.0 μl of tissue membranes ([…]).
The plates are left undisturbed on the bench top for 120 min to reach equilibrium. Non specific binding is assessed in the presence of 1.0 μM of unlabeled ligand, added in 20 μl volume. For test compounds, these are solubilized in 50% dimethylsulfoxide (DMSO) and added in 20.0 μl volume to a final incubation volume of 200 μl. Upon completion of binding, the content of each well is filtered off, using a Brandel® cell Harvester (Gaithersburg, Md.). The radioactivity trapped on the filter disk by the ligand-receptor complex is assessed by liquid scintillation counting in a Packard LS Counter, with an efficiency of 65% for tritium.

T2 sequence (P30518 whole entry): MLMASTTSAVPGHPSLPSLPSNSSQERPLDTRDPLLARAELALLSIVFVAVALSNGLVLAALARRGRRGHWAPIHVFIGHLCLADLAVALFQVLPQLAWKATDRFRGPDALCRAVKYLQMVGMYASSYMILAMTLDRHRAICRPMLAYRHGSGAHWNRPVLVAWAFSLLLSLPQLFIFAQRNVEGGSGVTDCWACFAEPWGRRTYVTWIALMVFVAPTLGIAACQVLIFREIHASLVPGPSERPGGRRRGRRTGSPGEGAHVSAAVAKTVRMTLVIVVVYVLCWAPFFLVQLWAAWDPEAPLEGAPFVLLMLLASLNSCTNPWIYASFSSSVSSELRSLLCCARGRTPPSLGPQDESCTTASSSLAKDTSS
T1 sequence (P37288 whole entry): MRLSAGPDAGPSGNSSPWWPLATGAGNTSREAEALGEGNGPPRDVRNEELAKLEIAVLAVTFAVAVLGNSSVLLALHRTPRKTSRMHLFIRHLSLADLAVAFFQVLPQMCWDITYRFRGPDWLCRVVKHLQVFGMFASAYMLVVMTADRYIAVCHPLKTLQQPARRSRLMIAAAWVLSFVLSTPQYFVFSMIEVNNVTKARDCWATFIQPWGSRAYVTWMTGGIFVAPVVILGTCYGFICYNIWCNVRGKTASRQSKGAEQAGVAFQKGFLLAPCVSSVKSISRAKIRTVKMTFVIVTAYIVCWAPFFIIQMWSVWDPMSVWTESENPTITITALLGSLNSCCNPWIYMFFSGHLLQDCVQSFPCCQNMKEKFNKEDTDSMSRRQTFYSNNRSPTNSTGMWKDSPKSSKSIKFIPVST

| Compound | IC50 [1] | IC50 [2] | inhibition at 10 µM ([1]; 1.5 h, 10 μM, human platelet (*), read-out: *V1, % at concentration in brackets) |
| --- | --- | --- | --- |
| COc1cc(C(=O)N2Cc3ccccc3Cc3ccccc32)ccc1NC(=O)c1ccccc1C [Example 257, N-[4-[(6,11-Dihydro-5H-dibenz[b,e]azepin-5-yl)-carbonyl]-2-methoxyphenyl]-2-methylbenzamide] | 16 nM | 20 nM | – |
| COc1cc(C(=O)N2Cc3ccccc3Cc3ccccc32)ccc1NC(=O)c1cc(F)ccc1C [Example 261, N-[4-[(6,11-Dihydro-5H-dibenz[b,e]azepin-5-yl)-carbonyl]-2-methoxyphenyl]-2-methyl-5-fluorobenzamide] | 21 nM | 16 nM | – |
| Cc1c(F)cccc1C(=O)Nc1ccc(C(=O)N2Cc3ccccc3Cc3ccccc32)cc1Cl [Example 262, N-[4-[(6,11-Dihydro-5H-dibenz[b,e]azepin-5-yl)-carbonyl]-2-chlorophenyl]-2-methyl-3-fluorobenzamide] | 620 nM | 250 nM | – |
| COc1cc(C(=O)N2Cc3ccccc3Cc3ccccc32)ccc1NC(=O)c1ccc(Cl)cc1Cl [Example 263, N-[4-[(6,11-Dihydro-5H-dibenz[b,e]azepin-5-yl)-carbonyl]-2-methoxyphenyl]-2,4-dichlorobenzamide] | 430 nM | 47 nM | – |

More lines, now with the values ahead:

| IC50 [1] | IC50 [2] | inhibition at 10 µM ([1]; 1.5 h, 10 μM, human platelet (*), read-out: *V1, % at concentration in brackets) | Compound |
| --- | --- | --- | --- |
| – | – | 14% | CC(C)COc1ccc([N+](=O)[O-])cc1C(=O)Nc1ccc(C(=O)N2Cc3ccccc3Cc3ccccc32)cc1 [Example 453] |
| 250 nM | 100 nM | – | Cc1nc2c(s1)CCN(C(=O)c1ccc(NC(=O)c3ccc(Cl)cc3Cl)cc1)c1ccccc1-2 [Example 455, N-[4-(4,5-Dihydro-2-methyl-6H-thiazolo[5,4-d][1]-benzazepin-6-yl)carbonyl1phenyl]-2,4-dichlorobenzamide] |
| 90 nM | 73 nM | – | Cc1nc2c(s1)CCN(C(=O)c1ccc(NC(=O)c3cc(F)ccc3C)cc1)c1ccccc1-2 [Example 534] |
| 150 nM | 2.2 nM | – | Cc1ccc(F)cc1C(=O)Nc1ccc(C(=O)N2CCc3c[nH]nc3-c3ccccc32)c(Cl)c1 [Example 581] |
| 28 nM | – | – | Cc1ccc(F)cc1C(=O)Nc1ccc(C(=O)N2CCc3c[nH]nc3-c3ccccc32)cc1 [Example 584, N-[4-[(4.5-Dihydropyrazolo[4,3-d][1]benzazepin-6(2H)-yl)carbonyl]phenyl]-5-fluoro-2-methylbenzamide] |
